For 13 molecules, IC50 and efflux ratio results are on record in patent publication US11834453B2, “Substituted pyrimido[5,4-d]pyrimidines as HER2 inhibitors” (Array BioPharma Inc., priority 2020, dated 2023).

Each structure is given as a SMILES string. Read-outs that look alike come from different tables or passages of the source.

One data set addresses EGFR wild type (EGFR WT) (Homo sapiens (Human), UniProt P00533). Kind of data set: Cellular phosphorylation assay, EGF-stimulated EGFR phosphorylation in engineered NIH 3T3 cells, Phospho-EGFR DuoSet IC ELISA, Assay 5. It is filed as cell-based. The method, boiled down: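 NIH 3T3 cells expressing EGFR WT (20,000/well, attached overnight) were exposed to serially diluted compound for 1 h at 37 °C, then stimulated with 100 ng/ml rEGF for 10 min. Phospho-EGFR in lysates measured by sandwich ELISA optical density; IC50 from curves.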
Background: An ELISA detects its analyte on a solid surface through an enzyme-linked reagent.

In data set [1] the target is ErbB2 insYVMA (HER2-YVMA, SEQ ID NO: 2) (Homo sapiens, UniProt P04626, INS775YVMA/P1170A). In words: biochemical. The conditions noted are these: ErbB2 insYVMA enzyme assay.
For data set [2], the target named is ErbB2 with Exon 20 YVMA insertion (HER2-YVMA) (Homo sapiens (Human), UniProt P04626, INS775YVMA). In words: Cellular phosphorylation assay, constitutive ErbB2 phosphorylation (Y1196) in engineered NIH 3T3 cells, Assay 4. It is filed as cell-based. The method, boiled down:
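Engineered NIH 3T3 cells expressing HER2-YVMA treated with compounds 1 h at 37 °C, then formaldehyde-fixed and methanol-permeabilized. pErbB2 Y1196 detected by in-cell infrared immunofluorescence, normalized to GAPDH. IC50 from the normalized curves.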

The target of another data set is EGFR (Homo sapiens (Human), UniProt P00533). Kind of data set: ErbB enzyme assay (CisBio HTRF KinEASE-TK), Assay 3. It is filed as biochemical. The method, boiled down: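 Kinase incubated 30 min at 22 °C with 250 nM biotinylated TK substrate, 1 mM ATP and serially diluted compound in 25 mM HEPES pH 7.4, 10 mM MgCl2, 0.01% Triton X-100, 2% DMSO. Phosphorylation read by HTRF (Sa-XL665/TK-Ab-Cryptate); IC50 from 4-parameter fit of percent of control.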
Background: Time-resolved FRET reads energy transfer from a long-lived donor to a nearby acceptor.

A further data set deals with MDR1 (P-gp) (Homo sapiens (Human), UniProt P08183). Kind of data set: MDR1 transfected LLC-PK1 permeability/efflux, Assay 6. The note with it: pig.
In another data set the target is BCRP (Homo sapiens (Human), UniProt Q9UNQ0). Kind of data set: BCRP transfected MDCKII canine Mdr1 knockout permeability/efflux, Assay 9. The conditions noted are these: dog.
Another data set addresses ErbB2 WT (Homo sapiens (Human), UniProt P04626). In words: ErbB enzyme assay (CisBio HTRF KinEASE-TK), Assay 2. It is filed as biochemical. The method, boiled down:
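ErbB2 phosphorylates 250 nM biotin-TK substrate at 1 mM ATP in 25 mM HEPES pH 7.4, 10 mM MgCl2, 0.01% Triton X-100 and 2% DMSO, for 30 min at 22 °C. Product is detected by HTRF with Sa-XL665 and TK-Ab-Cryptate. Percent of control is set by DMSO-only wells and pre-quenched wells.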

The mark [3] stands for this setting: LLC-PK1, Assay 6 Pe Ratio, efflux ratio Papp(B-A)/Papp(A-B), MDR1 transfected LLC-PK1.
[4] abbreviates: Assay 9 Pe Ratio, efflux ratio Papp(B-A)/Papp(A-B), BCRP transfected MDCKII canine Mdr1 knockout.

MDR1 (P-gp), sequence (P08183 whole entry): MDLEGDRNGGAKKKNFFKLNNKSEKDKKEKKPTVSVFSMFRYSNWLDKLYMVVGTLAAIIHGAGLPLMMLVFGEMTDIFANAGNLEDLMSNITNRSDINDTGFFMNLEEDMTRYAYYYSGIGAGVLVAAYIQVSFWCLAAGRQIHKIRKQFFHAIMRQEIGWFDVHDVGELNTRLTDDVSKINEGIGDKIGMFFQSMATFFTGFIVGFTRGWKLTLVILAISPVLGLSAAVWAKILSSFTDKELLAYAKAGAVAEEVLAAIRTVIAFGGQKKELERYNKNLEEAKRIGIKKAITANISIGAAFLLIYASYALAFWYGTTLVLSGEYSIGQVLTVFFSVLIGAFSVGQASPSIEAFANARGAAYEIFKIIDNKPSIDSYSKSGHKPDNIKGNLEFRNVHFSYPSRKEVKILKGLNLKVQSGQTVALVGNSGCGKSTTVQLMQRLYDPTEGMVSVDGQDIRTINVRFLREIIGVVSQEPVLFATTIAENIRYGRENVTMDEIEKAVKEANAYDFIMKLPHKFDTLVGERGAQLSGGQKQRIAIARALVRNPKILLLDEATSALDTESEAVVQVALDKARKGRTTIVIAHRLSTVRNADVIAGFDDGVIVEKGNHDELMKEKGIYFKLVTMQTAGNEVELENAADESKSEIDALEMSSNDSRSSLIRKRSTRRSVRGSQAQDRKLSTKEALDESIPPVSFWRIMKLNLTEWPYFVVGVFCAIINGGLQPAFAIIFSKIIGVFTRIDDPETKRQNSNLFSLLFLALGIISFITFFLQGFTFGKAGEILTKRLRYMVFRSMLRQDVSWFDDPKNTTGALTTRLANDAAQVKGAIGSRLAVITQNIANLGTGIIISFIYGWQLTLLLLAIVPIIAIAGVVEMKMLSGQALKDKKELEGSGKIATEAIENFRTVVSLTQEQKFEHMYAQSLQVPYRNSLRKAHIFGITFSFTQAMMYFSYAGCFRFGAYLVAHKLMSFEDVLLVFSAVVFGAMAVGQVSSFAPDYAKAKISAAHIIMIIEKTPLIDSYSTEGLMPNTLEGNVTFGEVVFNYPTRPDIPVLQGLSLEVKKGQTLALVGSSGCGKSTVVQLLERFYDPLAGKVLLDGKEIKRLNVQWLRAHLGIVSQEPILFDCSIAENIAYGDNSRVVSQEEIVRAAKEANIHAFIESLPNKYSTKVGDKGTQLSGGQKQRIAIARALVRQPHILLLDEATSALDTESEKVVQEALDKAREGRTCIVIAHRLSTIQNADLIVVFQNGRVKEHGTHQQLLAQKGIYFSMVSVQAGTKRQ
ErbB2 insYVMA (HER2-YVMA, SEQ ID NO: 2), sequence (P04626 with tags, fused parts or gaps INS775YVMA/P1170A limits assumed): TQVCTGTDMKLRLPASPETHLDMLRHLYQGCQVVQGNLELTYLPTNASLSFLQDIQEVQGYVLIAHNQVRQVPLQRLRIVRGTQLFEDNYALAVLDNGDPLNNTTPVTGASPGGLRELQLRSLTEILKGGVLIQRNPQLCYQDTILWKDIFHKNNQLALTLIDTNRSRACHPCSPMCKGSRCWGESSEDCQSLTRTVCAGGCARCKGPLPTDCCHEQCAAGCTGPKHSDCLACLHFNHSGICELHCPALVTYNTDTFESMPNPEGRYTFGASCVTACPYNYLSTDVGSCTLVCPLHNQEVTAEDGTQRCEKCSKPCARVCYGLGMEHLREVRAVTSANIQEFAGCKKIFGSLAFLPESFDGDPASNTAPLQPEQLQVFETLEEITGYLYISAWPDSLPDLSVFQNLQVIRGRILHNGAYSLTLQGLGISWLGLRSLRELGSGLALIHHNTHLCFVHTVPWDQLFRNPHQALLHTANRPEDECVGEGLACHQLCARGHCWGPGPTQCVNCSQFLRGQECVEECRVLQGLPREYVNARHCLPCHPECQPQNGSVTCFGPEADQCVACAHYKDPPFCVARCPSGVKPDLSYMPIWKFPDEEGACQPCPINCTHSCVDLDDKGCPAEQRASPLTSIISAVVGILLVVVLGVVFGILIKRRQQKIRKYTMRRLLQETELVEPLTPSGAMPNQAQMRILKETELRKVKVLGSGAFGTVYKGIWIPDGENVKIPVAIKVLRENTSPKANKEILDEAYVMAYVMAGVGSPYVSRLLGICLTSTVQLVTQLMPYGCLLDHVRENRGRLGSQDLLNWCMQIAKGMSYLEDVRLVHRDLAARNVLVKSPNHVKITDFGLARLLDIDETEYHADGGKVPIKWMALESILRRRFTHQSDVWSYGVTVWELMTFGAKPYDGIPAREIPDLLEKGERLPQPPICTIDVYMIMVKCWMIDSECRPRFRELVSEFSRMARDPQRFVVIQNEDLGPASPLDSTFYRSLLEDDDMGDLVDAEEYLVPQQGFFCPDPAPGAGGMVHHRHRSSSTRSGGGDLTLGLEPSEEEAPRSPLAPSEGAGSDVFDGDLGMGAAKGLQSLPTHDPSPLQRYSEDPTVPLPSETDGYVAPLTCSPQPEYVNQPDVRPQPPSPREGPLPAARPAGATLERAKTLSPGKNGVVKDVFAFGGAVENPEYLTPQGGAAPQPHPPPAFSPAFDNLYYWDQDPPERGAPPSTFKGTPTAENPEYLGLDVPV
EGFR wild type (EGFR WT), sequence (P00533 25-1210): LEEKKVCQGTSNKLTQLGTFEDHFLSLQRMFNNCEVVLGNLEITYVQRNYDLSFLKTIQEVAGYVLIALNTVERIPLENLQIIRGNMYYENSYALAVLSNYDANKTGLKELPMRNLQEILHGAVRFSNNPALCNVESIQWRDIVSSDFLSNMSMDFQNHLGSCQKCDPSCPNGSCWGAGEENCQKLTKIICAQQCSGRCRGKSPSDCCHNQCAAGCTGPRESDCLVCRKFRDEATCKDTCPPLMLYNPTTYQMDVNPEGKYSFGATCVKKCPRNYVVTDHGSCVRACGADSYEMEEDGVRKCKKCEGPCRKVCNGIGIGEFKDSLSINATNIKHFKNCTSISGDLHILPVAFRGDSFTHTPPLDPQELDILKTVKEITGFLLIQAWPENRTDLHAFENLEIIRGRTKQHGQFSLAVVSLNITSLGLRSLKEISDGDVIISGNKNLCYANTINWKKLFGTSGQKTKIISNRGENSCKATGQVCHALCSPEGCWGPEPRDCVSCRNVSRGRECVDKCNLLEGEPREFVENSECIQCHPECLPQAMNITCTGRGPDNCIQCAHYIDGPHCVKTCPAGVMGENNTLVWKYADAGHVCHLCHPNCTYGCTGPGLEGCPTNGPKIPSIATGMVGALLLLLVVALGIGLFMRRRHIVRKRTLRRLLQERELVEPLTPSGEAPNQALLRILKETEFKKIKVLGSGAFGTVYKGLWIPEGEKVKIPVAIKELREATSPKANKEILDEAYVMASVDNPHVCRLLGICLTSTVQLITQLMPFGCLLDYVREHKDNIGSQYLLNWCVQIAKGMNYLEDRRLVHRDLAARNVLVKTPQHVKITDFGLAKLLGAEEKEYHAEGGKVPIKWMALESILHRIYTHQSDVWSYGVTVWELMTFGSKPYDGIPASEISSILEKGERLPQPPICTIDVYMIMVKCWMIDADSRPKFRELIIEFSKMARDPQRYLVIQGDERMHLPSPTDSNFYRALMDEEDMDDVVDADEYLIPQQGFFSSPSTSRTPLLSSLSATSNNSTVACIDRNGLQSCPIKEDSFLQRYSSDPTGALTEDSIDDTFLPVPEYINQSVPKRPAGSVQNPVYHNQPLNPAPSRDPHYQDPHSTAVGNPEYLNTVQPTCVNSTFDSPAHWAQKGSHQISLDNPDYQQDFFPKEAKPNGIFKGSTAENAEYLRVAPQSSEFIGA
EGFR, sequence (P00533 25-1210): as above
Experimental for MDR1 (P-gp): Both MDR1 transfected LLC-PK1 (Assay 6) and MDR1 transfected MDCKII canine Mdr1 knockout cells (Assay 7) were cultured and plated according to manufacturer's recommendations with the exception that the passage media for the MDR1 transfected LLC-PK1 cell line contained only 2% fetal bovine serum so as to extend passage time out to seven days.
Both positive and negative controls were used to assess functionality of P-gp or BCRP efflux in the assays. Stock solutions for assay controls and the test article were prepared in DMSO for final test concentration of 1 μM. Final organic concentration in the assay was 1%. All dosing solutions contained 10 μM lucifer yellow to monitor MDCKII cell monolayer integrity.
For the apical to basolateral determination (A to B), 75 μL of the test article in transport buffer were added to the apical side of the individual transwells and 250 μL of basolateral media, without compound or lucifer yellow, were added to each well. For the basolateral to apical determination (B to A), 250 μL of test article in transport buffer were added to each well and 75 μL transport buffer, without compound or lucifer yellow, were added to each transwell. All tests were performed in triplicate, and each compound was tested for both apical to basolateral and basolateral to apical transport. The plates were incubated for 2 hours on a Lab-Line Instruments Titer Orbital Shaker (VWR, West Chester, PA) at 50 rpm and 37° C. with 5% CO2. All culture plates were removed from the incubator, 50 μL of media were removed from the apical and basolateral portion of each well, and added to 150 μL of 1 μM labetalol in 2:1 acetonitrile (ACN): H2O, v/v.
The plates were read using a Molecular Devices (Sunnyvale, CA) Gemini Fluorometer to evaluate the lucifer yellow concentrations at excitation/emission wavelengths of 425/535 nm. These values were accepted when found to be below 2% for apical to basolateral and 5% basolateral to apical flux across the MDR1-transfected LLC-PK1 or BCRP-transfected MDCKII cell monolayers. The plates were sealed, and the contents of each well analyzed by LC MS/MS. The compound concentrations were determined from the ratio of the peak areas of the compound to the internal standard (labetalol) in comparison to the dosing solution.
A MDS Sciex API 4000 (Applied Biosystems, Foster City, CA) mass spectrometer was used for detection of the analytes in the ion spray positive mode. Analyte responses were measured by multiple reaction monitoring (“MRM”) of transitions unique to each compound (the protonated precursor ion and selected product ions for each test article and m/z 329 to m/z 162 for labetalol, the internal standard.
The total run time, including re-equilibration, for a single injection was 1.2 minutes. […] The total run time, including re-equilibration, for a single injection was 0.61 minutes.
An efflux ratio is calculated from the mean apical to basolateral (A-B) Papp data and basolateral to apical (B-A) Papp data: Efflux ratio=Papp(B−A)/Papp(A−B)

By IC50 is commonly meant the concentration needed to halve the response being measured. The efflux ratio is a quotient of directional permeabilities that is used to spot active efflux. Take `Cc1cc(Nc2ncnc3cnc(N4C[C@H]5CC[C@@H]4CO5)nc23)ccc1Oc1ccc2c(c1)ncn2C` [Example 54, 6-((1R,4R)-2-oxa-5-azabicyclo[2.2.2]octan-5-yl)-N-(3-methyl-4-((1-methyl-1H-benzo[d]imidazol-5-yl)oxy)phenyl)pyrimido[5,4-d]pyrimidin-4-amine]: the half-inhibitory concentration (IC50) is at least 5000 nM against EGFR wild type (EGFR WT); 5.6 nM in data set [1] (read-out: Assay 1 IC50); 17.8 nM in data set [2]; 3430 nM at EGFR; 31.3 nM at ErbB2 WT. Moreover, the efflux ratio at 2 h, 1 μM at MDR1 (P-gp) (setting [3]) came to 1.4; on BCRP (setting [4]), 1.1.
`Cc1cc(Nc2ncnc3cnc(N(C)CC(F)F)nc23)ccc1Oc1ccc2c(c1)ncn2C` [Example 57, N2-(2,2-difluoroethyl)-N2-methyl-N8-(3-methyl-4-((1-methyl-1H-benzo[d]imidazol-5-yl)oxy)phenyl)pyrimido[5,4-d]pyrimidine-2,8-diamine]: the concentration for half-maximal inhibition (IC50) is at least 5000 nM at EGFR wild type (EGFR WT); 30.2 nM in data set [1] (read-out: Assay 1 IC50); 9.4 nM in data set [2]; 6630 nM against EGFR; 37.7 nM at ErbB2 WT. The efflux ratio at 2 h, 1 μM at MDR1 (P-gp) (setting [3]) was determined as 1.1; on BCRP (setting [4]) it was 1.4.
For the molecule `Cc1cc(Nc2ncnc3cnc(N4C5CCC4COC5)nc23)ccc1Oc1ccc2c(c1)ncn2C` [Example 59, 6-(3-oxa-8-azabicyclo[3.2.1]octan-8-yl)-N-(3-methyl-4-((1-methyl-1H-benzo[d]imidazol-5-yl)oxy)phenyl)pyrimido[5,4-d]pyrimidin-4-amine], the IC50 is at least 5000 nM on EGFR wild type (EGFR WT); 29.7 nM in data set [1] (read-out: Assay 1 IC50); 23.5 nM in data set [2]; at least 10000 nM at EGFR; 44.3 nM against ErbB2 WT. The efflux ratio at 2 h, 1 μM on MDR1 (P-gp) (setting [3]) was determined as 2; on BCRP (setting [4]), 7.4.
For `[2H]C([2H])([2H])Nc1ncc2ncnc(Nc3ccc(Oc4ccc5c(c4)ncn5C)c(C)c3)c2n1` [Example 65, N2-(methyl-d3)-N8-(3-methyl-4-((1-methyl-1H-benzo[d]imidazol-5-yl)oxy)phenyl)pyrimido[5,4-d]pyrimidine-2,8-diamine], the IC50 was at least 5000 nM against EGFR wild type (EGFR WT); 8.6 nM in data set [1] (read-out: Assay 1 IC50); 8.8 nM in data set [2]; 3000 nM on EGFR; 23 nM on ErbB2 WT. The efflux ratio at 2 h, 1 μM was 1.6 on MDR1 (P-gp) (setting [3]) and 1.9 on BCRP (setting [4]).
Consider `[2H]c1nc(Nc2ccc(Oc3ccc4c(c3)ncn4C)c(C)c2)c2nc(N3CCOCC3)nc([2H])c2n1` [Example 68, N-(3-methyl-4-((1-methyl-1H-benzo[d]imidazol-5-yl)oxy)phenyl)-6-morpholinopyrimido[5,4-d]pyrimidin-2,8-d2-4-amine], for which the IC50 on EGFR wild type (EGFR WT) is at least 5000 nM; in data set [1] (read-out: Assay 1 IC50), 10.2 nM; in data set [2], 10.7 nM; on EGFR it was 8230 nM; against ErbB2 WT, 16.3 nM. Besides, the efflux ratio at 2 h, 1 μM on MDR1 (P-gp) (setting [3]) was found to be 1.8; on BCRP (setting [4]), 0.9.
Consider `Cc1cc(Nc2ncnc3cnc(N4CCOCC4)nc23)ccc1Oc1cc(F)c2c(c1)ncn2C.O=C(O)C(F)(F)F` [Example 70, N-(4-((7-fluoro-1-methyl-1H-benzo[d]imidazol-5-yl)oxy)-3-methylphenyl)-6-morpholinopyrimido[5,4-d]pyrimidin-4-amine 2,2,2-trifluoroacetate], for which the half-inhibitory concentration (IC50) against EGFR wild type (EGFR WT) is at least 5000 nM; in data set [1] (Assay 1 IC50 (nM)), 106 nM; in data set [2] it was 4.9 nM; at EGFR, at least 10000 nM; on ErbB2 WT, 70.3 nM. The figures for the efflux ratio at 2 h, 1 μM on MDR1 (P-gp) (setting [3]) and at BCRP (setting [4]) were 1.8 and 1, respectively.
In the case of `Cc1cc(Nc2ncnc3cnc(N4CCO[C@@H](C)C4)nc23)ccc1Oc1ccc2c(c1)ncn2C.O=C(O)C(F)(F)F` [Example 74, (S)—N-(3-methyl-4-((1-methyl-1H-benzo[d]imidazol-5-yl)oxy)phenyl)-6-(2-methylmorpholino)pyrimido[5,4-d]pyrimidin-4-amine 2,2,2-trifluoroacetate], the concentration for half-maximal inhibition (IC50) against EGFR wild type (EGFR WT) is at least 5000 nM; in data set [1] (Assay 1 IC50 (nM)), 33 nM; in data set [2], 14.6 nM; on EGFR, 3720 nM; at ErbB2 WT, 35.5 nM. Moreover, the results for the efflux ratio at 2 h, 1 μM at MDR1 (P-gp) (LLC-PK1) and at BCRP were 1.7 and 1.3, respectively.
As to `Cc1cc(Nc2ncnc3cnc(N4CC5CC4CO5)nc23)ccc1Oc1ccc2c(c1)ncn2C.O=C(O)C(F)(F)F` (stereo not shown) [Example 77, 6-(2-oxa-5-azabicyclo[2.2.1]heptan-5-yl)-N-(3-methyl-4-((1-methyl-1H-benzo[d]imidazol-5-yl)oxy)phenyl)pyrimido[5,4-d]pyrimidin-4-amine 2,2,2-trifluoroacetate], the half-inhibitory concentration (IC50) was at least 5000 nM against EGFR wild type (EGFR WT); 26 nM in data set [1] (Assay 1 IC50 (nM)); 17.2 nM in data set [2]; at least 10000 nM against EGFR; 48.9 nM against ErbB2 WT. For the same molecule, the efflux ratio at 2 h, 1 μM is 1.7 on MDR1 (P-gp) (setting [3]) and 1.9 on BCRP (setting [4]).
As for `Cc1cc(Nc2ncnc3cnc(N4CCOCC4)nc23)c(F)cc1Oc1ccc2c(c1)ncn2C.O=C(O)C(F)(F)F` [Example 78, N-(2-fluoro-5-methyl-4-((1-methyl-1H-benzo[d]imidazol-5-yl)oxy)phenyl)-6-morpholinopyrimido[5,4-d]pyrimidin-4-amine 2,2,2-trifluoroacetate], the IC50 against EGFR wild type (EGFR WT) was at least 5000 nM; in data set [1] (Assay 1 IC50 (nM)) it was 60.4 nM; in data set [2] it was 36.7 nM; against EGFR, at least 10000 nM; against ErbB2 WT, 422 nM. Moreover, the figures for the efflux ratio at 2 h, 1 μM at MDR1 (P-gp) (setting [3]) and at BCRP (setting [4]) were 1.3 and 1.1, respectively.
`Cc1cc(Nc2ncnc3cnc(N4C(C)CCS4(=O)=O)nc23)ccc1Oc1ccc2c(c1)ncn2C.O=C(O)C(F)(F)F` (stereo not shown) [Example 79, 3-methyl-2-(8-((3-methyl-4-((1-methyl-1H-benzo[d]imidazol-5-yl)oxy)phenyl)amino)pyrimido[5,4-d]pyrimidin-2-yl)isothiazolidine 1,1-dioxide 2,2,2-trifluoroacetate]: the concentration for half-maximal inhibition (IC50) is at least 5000 nM against EGFR wild type (EGFR WT); 26.3 nM in data set [1] (Assay 1 IC50 (nM)); 7.7 nM in data set [2]; 3490 nM at EGFR; 33.8 nM against ErbB2 WT. The values for the efflux ratio at 2 h, 1 μM on MDR1 (P-gp) (setting [3]) and on BCRP (setting [4]) were 7.1 and 9.8, respectively.
For the molecule `Cn1cnc2cc(Oc3ccc(Nc4ncnc5cnc(N6CCOCC6)nc45)cc3F)ccc21.O=C(O)C(F)(F)F` [Example 80, N-(3-fluoro-4-((1-methyl-1H-benzo[d]imidazol-5-yl)oxy)phenyl)-6-morpholinopyrimido[5,4-d]pyrimidin-4-amine 2,2,2-trifluoroacetate], the IC50 against EGFR wild type (EGFR WT) is at least 5000 nM; in data set [1] (Assay 1 IC50 (nM)), 35.6 nM; in data set [2], 47.1 nM; against EGFR, at least 10000 nM; against ErbB2 WT, 431 nM. Moreover, the efflux ratio at 2 h, 1 μM on MDR1 (P-gp) (setting [3]) was 2.1; on BCRP (setting [4]), 2.4.
On to `CNc1ncc2ncnc(Nc3ccc(Oc4cc(F)c5c(c4)ncn5C)c(C)c3)c2n1` [Example 88, N8-(4-((7-fluoro-1-methyl-1H-benzo[d]imidazol-5-yl)oxy)-3-methylphenyl)-N2-methylpyrimido[5,4-d]pyrimidine-2,8-diamine], for which the IC50 against EGFR wild type (EGFR WT) is at least 5000 nM; in data set [1] (read-out: Assay 1 IC50), 4.8 nM; in data set [2], 5.1 nM; on EGFR, 9480 nM; against ErbB2 WT, 8.6 nM. Besides, the efflux ratio at 2 h, 1 μM at MDR1 (P-gp) (setting [3]) was found to be 1.9; on BCRP (setting [4]), 1.
With `Cc1cc(Nc2ncnc3cnc(N4CCO[C@H]5C[C@H]54)nc23)ccc1Oc1ccc2c(c1)ncn2C` [Example 161, 6-((1S,6R)-2-oxa-5-azabicyclo[4.1.0]heptan-5-yl)-N-(3-methyl-4-((1-methyl-1H-benzo[d]imidazol-5-yl)oxy)phenyl)pyrimido[5,4-d]pyrimidin-4-amine], the 50% inhibitory concentration (IC50) at EGFR wild type (EGFR WT) is at least 5000 nM; in data set [1] (read-out: Assay 1 IC50) it was 18.4 nM; in data set [2] it was 16 nM; on EGFR it was 8280 nM; against ErbB2 WT, 28.9 nM. The results for the efflux ratio at 2 h, 1 μM on MDR1 (P-gp) (setting [3]) and at BCRP (setting [4]) were 1.8 and 1.2, respectively.
